{"source": "patent US11731962B2", "about": "“LpxC inhibitor and methods of making” (priority 2020, dated 2023)", "assay_type_in_all_cases": "cell-based", "key": {"[1]": {"test_system": "S. pneumoniae ATCC 49619", "assay": "Bacterial susceptibility testing, broth microdilution MIC", "settings": "Streptococcus pneumoniae, ATCC49619, 35° C., 18-24 h", "description": "(§1) Minimal inhibitory concentrations (MIC) against a variety of gram-negative and gram-positive bacterial strains were determined by the broth microdilution method in accordance with the Clinical and Laboratory Standards Institute (CLSI) guidelines. In brief, organism suspensions were adjusted to a 0.5 McFarland standard to yield a final inoculum between 3×10^5 and 7×10^5 colony-forming units (CFU)/mL. Drug dilutions and inocula were made in sterile, cation adjusted Mueller-Hinton Broth (Beckton Dickinson). An inoculum volume of 100 μL was added to wells containing 100 μL of broth with 2-fold serial dilutions of drug. All inoculated microdilution trays were incubated in ambient air at 35° C. for 18-24 h. Following incubation, the lowest concentration of the drug that prevented visible growth (OD600 nm<0.05) was recorded as the MIC. Performance of the assay was monitored by the use of laboratory quality-control strains and levofloxacin, a compound with a defined MIC spectrum, in accordance with CLSI guidelines."}, "[2]": {"test_system": "E. coli ATCC 25922", "assay": "Bacterial susceptibility testing, broth microdilution MIC", "settings": "Escherichia coli, ATCC25922", "description": "as §1"}, "[3]": {"test_system": "L. monocytogenes ATCC 7644", "assay": "Bacterial susceptibility testing, broth microdilution MIC", "settings": "Listeria monocytogenes, ATCC7644, 35° C., 18-24 h", "description": "as §1"}, "[4]": {"test_system": "C. jeikeium NCTC 11914", "assay": "Bacterial susceptibility testing, broth microdilution MIC", "settings": "Corynebacterium jeikeium, NCTC11914, 35° C., 18-24 h", "description": "as §1"}, "[5]": {"test_system": "S. pyogenes ATCC 12384", "assay": "Bacterial susceptibility testing, broth microdilution MIC", "settings": "Streptococcus pyogenes, ATCC12384, 35° C., 18-24 h", "description": "as §1"}, "[6]": {"test_system": "L. rhamnosus ATCC 53103", "assay": "Bacterial susceptibility testing, broth microdilution MIC", "settings": "Lacticaseibacillus rhamnosus, ATCC53103, 35° C., 18-24 h", "description": "as §1"}, "[7]": {"test_system": "C. difficile ATCC 700057", "assay": "Bacterial susceptibility testing, broth microdilution MIC", "settings": "Clostridioides difficile, ATCC700057, 35° C., 18-24 h", "description": "as §1"}, "[8]": {"test_system": "P. anaerobius DSM 20357", "assay": "Bacterial susceptibility testing, broth microdilution MIC", "settings": "Peptostreptococcus anaerobius, DSM20357, 35° C., 18-24 h", "description": "as §1"}, "[9]": {"test_system": "B. breve HM 412", "assay": "Bacterial susceptibility testing, broth microdilution MIC", "settings": "Bifidobacterium breve, HM412, 35° C., 18-24 h", "description": "as §1"}, "[10]": {"test_system": "E. faecalis ATCC 29212", "assay": "Bacterial susceptibility testing, broth microdilution MIC", "settings": "Enterococcus faecalis, ATCC29212, 35° C., 18-24 h", "description": "as §1"}, "[11]": {"test_system": "S. aureus ATCC 29213", "assay": "Bacterial susceptibility testing, broth microdilution MIC", "settings": "for MIC: Staphylococcus aureus, ATCC29213, S. aureus ATCC 29213, broth microdilution, 35° C., 18-24 h", "description": "as §1"}, "[12]": {"test_system": "K. pneumoniae ATCC 13883", "assay": "Bacterial susceptibility testing, broth microdilution MIC", "settings": "Klebsiella pneumoniae, ATCC13883", "description": "as §1"}, "[13]": {"test_system": "B. thuringiensis ATCC 35646", "assay": "Bacterial susceptibility testing, broth microdilution MIC", "settings": "Bacillus thuringiensis, ATCC35646, 35° C., 18-24 h", "description": "as §1"}, "[14]": {"test_system": "S. epidermidis ATCC 35984", "assay": "Bacterial susceptibility testing, broth microdilution MIC", "settings": "Staphylococcus epidermidis, ATCC35984, 35° C., 18-24 h", "description": "as §1"}, "[15]": {"test_system": "P. acnes ATCC 6919", "assay": "Bacterial susceptibility testing, broth microdilution MIC", "settings": "Cutibacterium acnes, ATCC6919, 35° C., 18-24 h", "description": "as §1"}, "[16]": {"test_system": "N. cyriacigeorgica complex NBQAS 3295", "assay": "Bacterial susceptibility testing, broth microdilution MIC", "description": "as §1"}, "[17]": {"test_system": "C. sordellii ATCC 9714", "assay": "Bacterial susceptibility testing, broth microdilution MIC", "settings": "Paraclostridium sordellii, ATCC9714, 35° C., 18-24 h", "description": "as §1"}, "[18]": {"test_system": "gram-negative and gram-positive bacterial strains", "assay": "Bacterial susceptibility testing, whole panel", "settings": "summary of Table 1", "description": "as §1"}, "[19]": {"settings": "E. coli ATCC 25922, broth microdilution, 35° C., 18-24 h, read-out: MIC"}}, "note": "Where two headings read alike, the source gives them in different places.", "data": [{"compound": "N#CC1CN(C[C@@H](Cc2ncnc(O)c2O)c2ccc(C#Cc3ccc(CN4CCOCC4)cc3)cc2)C1", "note": "[Compound A, (S)-1-(3-(5,6-dihydroxypyrimidin-4-yl)-2-(4-((4-(morpholinomethyl)phenyl)ethynyl)phenyl)propyl)azetidine-3-carbonitrile]", "values": [{"measurement": "MIC", "setting": "[1]", "result": "> 64", "unit": "µg/mL"}, {"measurement": "MIC", "setting": "[2]; [19]", "result": 0.5, "unit": "µg/mL"}, {"measurement": "MIC", "setting": "[2]; E. coli cell lines, strain not named, read-out: MIC values", "result": "< 1", "unit": "µg/mL"}, {"measurement": "MIC", "setting": "[3]", "result": "> 64", "unit": "µg/mL"}, {"measurement": "MIC", "setting": "[4]", "result": "> 64", "unit": "µg/mL"}, {"measurement": "MIC", "setting": "[5]", "result": "> 64", "unit": "µg/mL"}, {"measurement": "MIC", "setting": "[6]", "result": "> 64", "unit": "µg/mL"}, {"measurement": "MIC", "setting": "[7]", "result": "> 64", "unit": "µg/mL"}, {"measurement": "MIC", "setting": "[8]", "result": "> 64", "unit": "µg/mL"}, {"measurement": "MIC", "setting": "[9]", "result": "> 64", "unit": "µg/mL"}, {"measurement": "MIC", "setting": "[10]", "result": "> 64", "unit": "µg/mL"}, {"measurement": "MIC", "setting": "[11]", "result": "> 64", "unit": "µg/mL"}, {"measurement": "inhibition of gram-positive bacterial cell lines", "setting": "[11]; gram-positive bacterial cell lines, such as S. aureus", "result": "does not inhibit"}, {"measurement": "MIC", "setting": "[12]; K. pneumoniae ATCC 13883, broth microdilution, 35° C., 18-24 h, read-out: MIC", "result": 0.5, "unit": "µg/mL"}, {"measurement": "MIC", "setting": "[12]; K. pneumoniae cell lines, strain not named, read-out: MIC values", "result": "< 1", "unit": "µg/mL"}, {"measurement": "MIC", "setting": "[13]", "result": "> 64", "unit": "µg/mL"}, {"measurement": "MIC", "setting": "[14]", "result": "> 64", "unit": "µg/mL"}, {"measurement": "MIC", "setting": "[15]", "result": "> 64", "unit": "µg/mL"}, {"measurement": "MIC", "setting": "[16]", "result": "> 64", "unit": "µg/mL"}, {"measurement": "MIC", "setting": "[17]", "result": "> 64", "unit": "µg/mL"}, {"measurement": "selectivity for gram-negative bacteria over gram-positive bacteria", "setting": "[18]", "result": "high selectivity"}]}, {"compound": "C[C@H]1COc2c(N3CCN(C)CC3)c(F)cc3c(=O)c(C(=O)O)cn1c23", "note": "[Levofloxacin]", "values": [{"measurement": "MIC", "setting": "[1]", "result": 1, "unit": "µg/mL"}, {"measurement": "MIC", "setting": "[2]; [19]", "result": 0.03, "unit": "µg/mL"}, {"measurement": "MIC", "setting": "[3]", "result": 1, "unit": "µg/mL"}, {"measurement": "MIC", "setting": "[4]", "result": 1, "unit": "µg/mL"}, {"measurement": "MIC", "setting": "[5]", "result": 0.5, "unit": "µg/mL"}, {"measurement": "MIC", "setting": "[6]", "result": 1, "unit": "µg/mL"}, {"measurement": "MIC", "setting": "[7]", "result": 4, "unit": "µg/mL"}, {"measurement": "MIC", "setting": "[8]", "result": 0.5, "unit": "µg/mL"}, {"measurement": "MIC", "setting": "[9]", "result": 4, "unit": "µg/mL"}, {"measurement": "MIC", "setting": "[10]", "result": 1, "unit": "µg/mL"}, {"measurement": "MIC", "setting": "[11]", "result": 0.25, "unit": "µg/mL"}, {"measurement": "MIC", "setting": "[13]", "result": 0.125, "unit": "µg/mL"}, {"measurement": "MIC", "setting": "[14]", "result": 0.125, "unit": "µg/mL"}, {"measurement": "MIC", "setting": "[15]", "result": 0.5, "unit": "µg/mL"}, {"measurement": "MIC", "setting": "[16]", "result": 8, "unit": "µg/mL"}, {"measurement": "MIC", "setting": "[17]", "result": 1, "unit": "µg/mL"}]}, {"compound": "C[C@@H](O)[C@H]1C(=O)N2C(C(=O)O)=C(S[C@@H]3CN[C@H](C(=O)N(C)C)C3)[C@H](C)[C@H]12", "note": "[Meropenem]", "values": [{"measurement": "MIC", "setting": "[1]", "result": 0.06, "unit": "µg/mL"}, {"measurement": "MIC", "setting": "[2]; [19]", "result": 0.03, "unit": "µg/mL"}, {"measurement": "MIC", "setting": "[4]", "result": "> 1", "unit": "µg/mL"}, {"measurement": "MIC", "setting": "[5]", "result": 0.008, "unit": "µg/mL"}, {"measurement": "MIC", "setting": "[6]", "result": "> 1", "unit": "µg/mL"}, {"measurement": "MIC", "setting": "[7]", "result": 1, "unit": "µg/mL"}, {"measurement": "MIC", "setting": "[8]", "result": "> 1", "unit": "µg/mL"}, {"measurement": "MIC", "setting": "[9]", "result": "> 1", "unit": "µg/mL"}, {"measurement": "MIC", "setting": "[10]", "result": "> 1", "unit": "µg/mL"}, {"measurement": "MIC", "setting": "[13]", "result": 0.06, "unit": "µg/mL"}, {"measurement": "MIC", "setting": "[14]", "result": "> 1", "unit": "µg/mL"}, {"measurement": "MIC", "setting": "[15]", "result": 0.06, "unit": "µg/mL"}, {"measurement": "MIC", "setting": "[16]", "result": "> 1", "unit": "µg/mL"}, {"measurement": "MIC", "setting": "[17]", "result": 0.015, "unit": "µg/mL"}, {"measurement": "activity against gram-positive bacteria", "setting": "[18]", "result": "do have activity against various strains of gram-positive bacteria"}]}]}
